Test results from patent EP2881391A1, “Spiroindoline carbocycle derivatives and pharmaceutical compositions thereof” (Bayer Pharma Aktiengesellschaft, priority 2013, dated 2015).
pIC50: −log10 of the molar value.

Molecular target: T1, human GnRH receptor (Homo sapiens, UniProt P30968)
T1 construct: line established by Prof; Thomas Gudermann; host or cells: CHO cells
T1 sequence (P30968 1-328): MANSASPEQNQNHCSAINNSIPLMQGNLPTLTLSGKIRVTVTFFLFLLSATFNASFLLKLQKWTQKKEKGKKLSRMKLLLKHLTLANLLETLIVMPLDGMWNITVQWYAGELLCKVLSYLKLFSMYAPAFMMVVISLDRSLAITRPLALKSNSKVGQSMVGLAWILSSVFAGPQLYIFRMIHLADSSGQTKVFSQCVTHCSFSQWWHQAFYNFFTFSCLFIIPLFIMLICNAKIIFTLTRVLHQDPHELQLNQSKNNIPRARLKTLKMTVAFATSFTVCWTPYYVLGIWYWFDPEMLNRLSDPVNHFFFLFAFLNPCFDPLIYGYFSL
Experiment: IP-One HTRF assay (inhibition of GnRH-R activation by buserelin)
Type: cell-based
Details: IP-One HTRF assay with buserelin (at EC80) stimulation; CHO cells stably expressing human GnRH receptor; tested 20 µM to 1 nM; read-out: Potency IC50
From the text: By using homogenous time-resolved fluorescence resonance energy transfer (HTRF), the generation of one component of the GnRH-R signalling cascade can be measured. After stimulation of CHO cells stably expressing human GnRH receptor (established by Prof. Thomas Gudermann, currently University of Marburg, Germany; supplied as frozen cell aliquots by Cell Culture Services, Hamburg, Germany) with the EC80 of the GnRH agonist buserelin, Gq protein-coupled receptor signalling cascade is activated resulting in PLC-dependent cleavage of PIP2 to Inositol-1,4,5-triphosphate (IP3) and Diacylglycerol. The second messenger IP3 is degraded intracellularly to myo-inositol. Inhibition of the final degradation step from Inositol-1-phosphate (IP1) to myo-inositol by addition of lithium chloride leads to accumulation of IP1 in the cells. In cell lysates, IP1 can be detected via an antibody-based HTRF detection technology, where IP1 can displace the FRET acceptor IP1-d2 from binding by Terbium-labelled anti-IP1 antibody as donor resulting in a signal decrease. Compounds were tested for their capability of inhibiting GnRH-R activation by buserelin. For all IP-One HTRF® assays reagents of Cisbio Bioassays (IP-One Tb Jumbo kit, #62IPAPEJ; Cisbio Bioassays, Bagnols sur Cèze Cedex, France) were used.
For the assay, frozen cell aliquots were thawed and a cell suspension (3.33x10^6 cells/ml) containing IP1-d2 (dilution 1:40) was prepared and incubated at 37°C. After 1 h 3 µl of the cell suspension were added to 50 nl of a 100-fold concentrated solution of the test compound in DMSO pre-dispensed in a well of a white low-volume 384-well microtiter plate (Greiner Bio-One, Frickenhausen, Germany). The mixture was incubated for 20 min at 22°C to allow for pre-binding of the test compound to the GnRH-R. The receptor signaling cascade was stimulated by addition of 2 µl buserelin or LHRH (at EC50 or EC80) in stimulation buffer (10 mM Hepes pH 7.4, 1 mM CaCl2, 0.5 mM MgCl2, 4.2 mM KCI, 146 mM NaCl, 5.5 mM α-D-Glucose, 0.05% BSA, 125 mM LiCl (final assay concentration 50 mM) in aqua dest.). Plates were incubated for 1 h at 37°C and 5% carbon dioxide before the cells were lysed by adding 3 µl Terbium-labelled anti-IP1 antibody (1:40) diluted in Conjugate & Lysis buffer as supplied with the kit. After an incubation for 1 h at 22°C to enable complete cell lysis and antibody binding to free IP1 or IP1-d2, plates were measured in an HTRF reader, e.g. a RUBYstar, PHERAstar (both BMG Labtechnologies, Offenburg, Germany) or a Viewlux (PerkinElmer LAS, Rodgau-Jügesheim, Germany). From the fluorescence emissions at 665 nm (FRET) and at 620 nm (background signal of Terbium-antibody), the ratio (emission at 665 nm divided by emission at 620 nm) was calculated and the data were normalized (reaction without test compound = 0% inhibition; all other assay components except agonist = 100% inhibition). On the same microtiter plate, compounds were tested at 10 different concentrations in the range of 20 µM to 1 nM (20 µM, 6.7 µM, 2.2 µM, 0.74 µM, 0.25 µM, 82 nM, 27 nM, 9.2 nM, 3.1 nM and 1 nM; dilution series prepared before the assay at the level of the 100-fold conc. stock solutions by serial 1:3 dilutions in 100% DMSO) in duplicate values for each concentration. By using an in-house software, the IC50 values were calculated by a 4 parameter fit. The data reveal that the compounds of the present invention have antagonist activities on the human GnRH receptor. Within the meaning of the present invention the antagonist activity is reflected by the ability of a compound of the invention to antagonize human GnRH receptor stimulation in IP-One HTRF® assay at least three times the standard deviation over the background level.

| SMILES | pIC50 |
| --- | --- |
| O=C1CCC2(CC1)c1cc(C(=O)NCc3ccccc3Cl)ccc1N(S(=O)(=O)c1ccc(F)cc1)C2C1CC1 (single isomer, unassigned) [Example 3-2] | 5.99 |
| CC(C)=CCC1N(S(=O)(=O)c2ccc(F)cc2)c2ccc(C(=O)Nc3ccon3)cc2C12CCC(O)(C(F)(F)F)CC2 (stereo not drawn) [Example 17, 1'-[(4-fluorophenyl)sulfonyl]-4-hydroxy-2'-(3-methylbut-2-en-1-yl)-N-(1,2-oxazol-3-yl)-4-(trifluoromethyl)-1',2'-dihydrospiro[cyclohexane-1,3'-indole]-5'-carboxamide] | 6.28 |
| COc1cccc(S(=O)(=O)N2c3ccc(C(=O)NCc4ncccc4Cl)cc3C3(CCC(O)(C(F)(F)F)CC3)C2C2CC2)c1 (stereo not drawn) [Example 45, N-[(3-chloropyridin-2-yl)methyl]-2'-cyclopropyl-4-hydroxy-1'-[(3-methoxyphenyl)su Ifonyl]-4-(trifluoromethyl)-1',2'-dihydrospiro[cyclohexane-1,3'-indole]-5'-carboxamide] | 6.12 |
| COc1cccc(S(=O)(=O)N2c3ccc(C(=O)Nc4cccc(C(=O)O)c4)cc3C3(CCC(O)(C(F)(F)F)CC3)C2C2CC2)c1 (stereo not drawn) [Example 35, 3-[({2'-cyclopropyl-4-hydroxy-1 '-[(3-methoxyphenyl)su Ifonyl]-4-(trifluoromethyl)-1',2'-dihydrospiro[cyclohexane-1,3'-indol]-5'-yl}carbonyl)amino] benzoic acid] | 5.86 |
| O=C(NCc1ccccc1Cl)c1ccc2c(c1)C1(CCC(O)(C(F)(F)F)CC1)C(C1CC1)N2S(=O)(=O)c1ccc(F)cc1 (single isomer, unassigned) [Example 62-1] | 7.00 |
| COc1cccc(S(=O)(=O)N2c3ccc(C(=O)Nc4cccc(C)c4)cc3C3(CCC(O)(C(F)(F)F)CC3)C2C2CC2)c1 (stereo not drawn) [Example 34, 2'-cyclopropyl-4-hydroxy-1'-[(3-methoxyphenyl)su Ifonyl]-N-(3-methylphenyl)-4-(trifluoromethyl)-1',2'-dihydrospiro[cyclohexane-1,3'-indole]-5'-carboxamide] | 5.47 |
| COC(=O)c1cccc(S(=O)(=O)N2c3ccc(C(=O)Nc4ccon4)cc3C3(CCC(O)(C(F)(F)F)CC3)C2C2CC2)c1 (stereo not drawn) [Example 27, methyl 3-{[2'-cyclopropyl-4-hydroxy-5'-(1,2-oxazol-3-ylcarbamoyl)-4-(trifluoromethyl)spiro[cyclohexane-1,3'-indol]-1'(2'H)-yl]sulfonyl}benzoate] | 5.95 |
| NS(=O)(=O)c1cccc(NC(=O)c2ccc3c(c2)C2(CCC(O)(C(F)(F)F)CC2)C(C2CC2)N3S(=O)(=O)c2ccc(F)cc2)c1 (stereo not drawn) [Example 47, 2'-cyclopropyl-1 [(4-fluorophenyl)sulfonyl]-4-hydroxy-N-(3-sulfamoylphenyl)-4-(trifluoromethyl)-1',2'-dihydrospiro[cyclohexane-1,3'-indole]-5'-carboxamide] | 6.21 |
| CC(C)=CCC1N(S(=O)(=O)c2ccc(F)cc2)c2ccc(C(=O)Nc3cncc(C(F)(F)F)c3)cc2C12CCC(O)(C(F)(F)F)CC2 (stereo not drawn) [Example 19, 1'-[(4-fluorophenyl)sulfonyl]-4-hydroxy-2'-(3-methylbut-2-en-1-yl)-4-(trifluoromethyl)-N-[5-(trifluoromethyl)pyridin-3-yl]-1',2'-dihydrospiro[cyclohexane-1,3'-indole]-5'-carboxamide] | 5.03 |
| O=C(O)c1cccc(S(=O)(=O)N2c3ccc(C(=O)Nc4ccon4)cc3C3(CCC(O)(C(F)(F)F)CC3)C2C2CC2)c1 (stereo not drawn) [Example 48, 3-{[2'-cyclopropyl-4-hydroxy-5'-(1,2-oxazol-3-ylcarbamoyl)-4-(trifluoromethyl)spiro[cyclohexane-1,3'-indol]-1'(2'H)-yl]sulfonyl}benzoic acid] | 5.17 |
| CC(C)=CCC1N(S(=O)(=O)c2ccc(F)cc2)c2ccc(C(=O)Nc3cccc(S(C)(=O)=O)c3)cc2C12CCC(O)(C(F)(F)F)CC2 (stereo not drawn) [Example 15, 1'-[(4-fluorophenyl)sulfonyl]-4-hydroxy-2'-(3-methylbut-2-en-1-yl)-N-[3-(methylsulfonyl)phenyl]-4-(trifluoromethyl)-1',2'-dihydrospiro[cyclohexane-1,3'-indole]-5'-carboxamide] | 5.89 |
| CC(C)=CCC1N(S(=O)(=O)c2ccc(F)cc2)c2ccc(C(=O)NCc3ccccc3Cl)cc2C12CCC(O)(C(F)(F)F)CC2 (stereo not drawn) [Example 22, N-(2-chlorobenzyl)-1'-[(4-fluorophenyl)sulfonyl]-4-hydroxy-2'-(3-methylbut-2-en-1-yl)-4-(trifluoromethyl)-1',2'-dihydrospiro[cyclohexane-1,3'-indole]-5'-carboxamide] | 6.13 |
| CC(C)=CCC1N(S(=O)(=O)c2ccc(F)cc2)c2ccc(C(=O)Nc3ncco3)cc2C12CCC(O)(C(F)(F)F)CC2 (stereo not drawn) [Example 20, 1'-[(4-fluorophenyl)sulfonyl]-4-hydroxy-2'-(3-methylbut-2-en-1-yl)-N-(1,3-oxazol-2-yl)-4-(trifluoromethyl)-1',2'-dihydrospiro[cyclohexane-1,3'-indole]-5'-carboxamide] | 6.18 |
| O=C(NCc1ccccc1Cl)c1ccc2c(c1)C1(CCC(F)(F)CC1)C(C1CC1)N2S(=O)(=O)c1ccc(F)cc1 (stereo not drawn) [Example 6, N-(2-chlorobenzyl)-2'-cyclopropyl-4,4-difluoro-1'-[(4-fluorophenyl)sulfonyl]-1',2'-dihydrospiro[cyclohexane-1,3'-indole]-5'-carboxamide] | 6.31 |
| O=C(O)c1cccc(S(=O)(=O)N2c3ccc(C(=O)NCc4ncccc4C(F)(F)F)cc3C3(CCC(O)(C(F)(F)F)CC3)C2C2CC2)c1 (stereo not drawn) [Example 50, 3-{[2'-cyclopropyl-4-hydroxy-4-(trifluoromethyl)-5'-({[3-(trifluoromethyl)pyridin-2-yl]methyl}carbamoyl)spiro[cyclohexane-1,3'-indol]-1'(2'H)-yl]sulfonyl}benzoic acid] | 5.51 |
| COc1cccc(S(=O)(=O)N2c3ccc(C(=O)Nc4cccc(S(N)(=O)=O)c4)cc3C3(CCC(O)(C(F)(F)F)CC3)C2C2CC2)c1 (stereo not drawn) [Example 37, 2'-cyclopropyl-4-hydroxy-1'-[(3-methoxyphenyl)su Ifonyl]-N-(3-sulfamoylphenyl)-4-(trifluoromethyl)-1',2'-dihydrospiro[cyclohexane-1,3'-indole]-5'-carboxamide] | 5.58 |
| O=C1CCC2(CC1)c1cc(C(=O)NCc3ncc(C(F)(F)F)cc3Cl)ccc1N(S(=O)(=O)c1ccc(F)cc1)C2C1CC1 (stereo not drawn) [Example 8, N-{[3-chloro-5-(trifluoromethyl)pyridin-2-yl]methyl}-2'-cyclopropyl-1'-[(4-fluorophenyl)sulfonyl]-4-oxo-1',2'-dihydrospiro[cyclohexane-1,3'-indole]-5'-carboxamide] | 7.24 |
| O=C(Nc1cc[nH]n1)c1ccc2c(c1)C1(CCC(O)(C(F)(F)F)CC1)C(C1CC1)N2S(=O)(=O)c1ccc(F)cc1 (stereo not drawn) [Example 52, 2'-cyclopropyl-1'-[(4-fluorophenyl)sulfonyl]-4-hydroxy-N-(1H-pyrazol-3-yl)-4-(trifluoromethyl)-1',2'-dihydrospiro[cyclohexane-1,3'-indole]-5'-carboxamide] | 6.15 |
